According to patent US20260209193A1, “NOVEL INHIBITORS OF DNA DAMAGE RESPONSES FOR CANCER THERAPY” (The Regents of the University of California, priority 2022, published 2026):
One block for each compound: values may come before it.

Target: T1, PARP1 (Homo sapiens, UniProt P09874)
T1 construct: endogenous in cells; host or cells: PC3
Experiment: PARP1 trapping, chromatin fractionation (chromatin-bound fraction)
Assay type: cell-based
Details: PC3 cells
From the text: The trapped PARP1 forms a toxic lesion and stalls the progress of replication forks. The replication fork collapses in BRCA1/2-deficient cancer cells, and then results in cell death. […] Six cancer cell lines were used in this assay, including two breast cancer cell lines, BRCA1-mutunt SUM149PT-BRCA1mut and SUM149PT-BRCA1rev where deleterious BRCA1 mutation is reverted to form a functional BRCA1, two ovarian cancer cell lines, BRCA1-null UWB1.289 and UWB1.289+BRCA1, a stable cell line in which wild-type BRCA1 function has been restored, and two prostate cancer cell lines, enzalutamide resistant C4-2B/MR which is homologous recombination (HR)-deficient due to Rad51 mutation, and enzalutamide insensitive PC3 which is HR-proficient.

T1 sequence (P09874 whole entry, species assumed): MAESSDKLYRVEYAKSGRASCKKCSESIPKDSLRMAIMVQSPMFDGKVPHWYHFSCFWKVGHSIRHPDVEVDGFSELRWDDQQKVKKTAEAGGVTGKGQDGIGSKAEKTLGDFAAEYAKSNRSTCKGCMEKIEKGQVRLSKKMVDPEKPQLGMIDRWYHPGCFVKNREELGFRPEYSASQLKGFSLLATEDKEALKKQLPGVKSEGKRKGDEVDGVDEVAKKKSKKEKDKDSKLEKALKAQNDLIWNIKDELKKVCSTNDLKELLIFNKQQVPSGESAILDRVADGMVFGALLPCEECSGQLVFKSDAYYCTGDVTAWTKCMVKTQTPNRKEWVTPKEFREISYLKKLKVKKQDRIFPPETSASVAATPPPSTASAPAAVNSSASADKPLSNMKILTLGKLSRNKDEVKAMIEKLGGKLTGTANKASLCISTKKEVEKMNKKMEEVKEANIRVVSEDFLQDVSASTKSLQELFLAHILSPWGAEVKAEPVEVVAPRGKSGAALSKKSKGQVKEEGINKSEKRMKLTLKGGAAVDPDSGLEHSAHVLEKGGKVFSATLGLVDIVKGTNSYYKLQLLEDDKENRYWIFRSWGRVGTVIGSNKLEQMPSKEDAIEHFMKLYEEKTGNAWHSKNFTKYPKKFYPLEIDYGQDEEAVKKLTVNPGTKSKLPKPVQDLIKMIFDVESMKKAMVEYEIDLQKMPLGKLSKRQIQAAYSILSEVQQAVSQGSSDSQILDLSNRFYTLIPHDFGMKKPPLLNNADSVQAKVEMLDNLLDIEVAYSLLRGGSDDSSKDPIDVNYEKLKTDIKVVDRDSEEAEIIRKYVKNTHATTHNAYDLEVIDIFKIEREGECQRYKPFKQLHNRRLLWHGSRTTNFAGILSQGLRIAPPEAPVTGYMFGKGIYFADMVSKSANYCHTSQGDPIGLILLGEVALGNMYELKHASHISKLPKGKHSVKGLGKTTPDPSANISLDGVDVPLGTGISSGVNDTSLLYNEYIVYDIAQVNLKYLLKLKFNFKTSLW

Compound: COCCCNCCOc1ccc(C(=O)NC2C/C(=C\c3ccc(F)c(F)c3)C(=O)/C(=C/c3ccc(F)c(F)c3)C2)cc1 (stereo not drawn) [JCS030, N-(3,5-Bis((E)-3,4-difluorobenzylidene)-4-oxocyclohexyl)-4-(2-((3-methoxypropyl)amino)ethoxy)-benzamide]
PARP1 trapped on DNA lesions (0.5 μM): trapped

Compound: COCCNCCOc1ccc(C(=O)NC2C/C(=C\c3ccc(F)c(F)c3)C(=O)/C(=C/c3ccc(F)c(F)c3)C2)cc1 (stereo not drawn) [JCS031, N-(3,5-Bis((E)-3,4-difluorobenzylidene)-4-oxocyclohexyl)-4-(2-((2-methoxyethyl)amino)ethoxy)-benzamide]
PARP1 trapped on DNA lesions (0.5 μM): trapped

Compound: NCCOc1ccc(C(=O)NC2C/C(=C\c3ccc(F)c(F)c3)C(=O)/C(=C/c3ccc(F)c(F)c3)C2)cc1 (stereo not drawn) [JCS036]
PARP1 trapped on DNA lesions (0.5 μM): trapped

Compound: CCN(CC)CCOc1ccc(C(=O)NC2CC(Cc3ccc(F)c(F)c3)C(=O)C(Cc3ccc(F)c(F)c3)C2)cc1 (stereo not drawn) [JCS074, N-(3,5-bis(3,4-difluorobenzyl)-4-oxocyclohexyl)-4-(2-(diethylamino)ethoxy)benzamide]
PARP1-trapping potency relative to JC099 (PARP1 in the chromatin-bound fraction): increased the accumulation of PARP1 in the chromatin-bound fraction than JC099

Compound: CCOCCOc1ccc(C(=O)NC2C/C(=C\c3ccc(F)c(F)c3)C(=O)/C(=C/c3ccc(F)c(F)c3)C2)cc1 (stereo not drawn) [JCS010, N-(3,5-Bis((E)-3,4-difluorobenzylidene)-4-oxocyclohexyl)-4-(2-ethoxyethoxy)benzamide]
PARP1 trapped on DNA lesions (0.5 μM and 2 μM): trapped

Compound: CCCCNCCOc1ccc(C(=O)NC2C/C(=C\c3ccc(F)c(F)c3)C(=O)/C(=C/c3ccc(F)c(F)c3)C2)cc1 (stereo not drawn) [JCS034, N-(3,5-Bis((E)-3,4-difluorobenzylidene)-4-oxocyclohexyl)-4-(2-(butylamino)ethoxy)benzamide]
PARP1 trapped on DNA lesions (0.5 μM): trapped
PARP1-trapping potency relative to JC099 (PARP1 in the chromatin-bound fraction): higher potency in PARP1-trapping

Compound: CCCN(CCC)CCOc1ccc(C(=O)NC2C/C(=C\c3ccc(F)c(F)c3)C(=O)/C(=C/c3ccc(F)c(F)c3)C2)cc1 (stereo not drawn) [JCS011, N-(3,5-Bis((E)-3,4-difluorobenzylidene)-4-oxocyclohexyl)-4-(2-(dipropylamino)ethoxy)benzamide]
PARP1 trapped on DNA lesions (0.5 μM and 2 μM): trapped
PARP1-trapping potency relative to JC099 (PARP1 in the chromatin-bound fraction): higher potency in PARP1-trapping

Compound: O=C1/C(=C/c2ccc(F)c(F)c2)CC(NC(=O)c2ccc(OCCN3CCCCC3)cc2)C/C1=C\c1ccc(F)c(F)c1 (stereo not drawn) [JCS16]
PARP1 trapped on DNA lesions (0.5 μM): trapped

Compound: CCCCCN(CCCCC)CCOc1ccc(C(=O)NC2C/C(=C\c3ccc(F)c(F)c3)C(=O)/C(=C/c3ccc(F)c(F)c3)C2)cc1 (stereo not drawn) [JCS023, N-(3,5-Bis((E)-3,4-difluorobenzylidene)-4-oxocyclohexyl)-4-(2-(dipentylamino)ethoxy)benzamide]
PARP1 trapped on DNA lesions (0.5 μM and 2 μM): trapped
PARP1 trapped on DNA lesions (0.5 μM): trapped

Compound: O=C1/C(=C/c2ccc(F)c(F)c2)CC(NC(=O)c2ccc(OCCN3CCC(C(F)(F)F)CC3)cc2)C/C1=C\c1ccc(F)c(F)c1 (stereo not drawn) [JCS077, N-(3,5-bis((E)-3,4-difluorobenzylidene)-4-oxocyclohexyl)-4-(2-(4-(trifluoromethyl)piperidin-1-yl)ethoxy)benzamide]
PARP1-trapping potency relative to JC099 (PARP1 in the chromatin-bound fraction): increased the accumulation of PARP1 in the chromatin-bound fraction than JC099

Compound: CC(C)N(CCOc1ccc(C(=O)NC2C/C(=C\c3ccc(F)c(F)c3)C(=O)/C(=C/c3ccc(F)c(F)c3)C2)cc1)C(C)C (stereo not drawn) [JCS013, N-(3,5-Bis((E)-3,4-difluorobenzylidene)-4-oxocyclohexyl)-4-(2-(diisopropylamino)ethoxy)benzamide]
PARP1 trapped on DNA lesions (0.5 μM and 2 μM): trapped
PARP1-trapping potency relative to JC099 (PARP1 in the chromatin-bound fraction): higher potency in PARP1-trapping

Other lines, results leading:

PARP1 trapped on DNA lesions (0.3 μM): trapped
PARP1-trapping potency relative to JC099 (PARP1 in the chromatin-bound fraction): higher potency in PARP1-trapping
Compound: O=C1/C(=C/c2ccc(F)c(F)c2)CC(NC(=O)c2ccc(NC(=O)N3CCCCC3)cc2)C/C1=C\c1ccc(F)c(F)c1 (stereo not drawn) [JCS053, N-(4-((3,5-bis((E)-3,4-difluorobenzylidene)-4-oxocyclohexyl)carbamoyl)phenyl)piperidine-1-carboxamide]

PARP1-trapping potency relative to JC099 (PARP1 in the chromatin-bound fraction): higher potency in PARP1-trapping
Compound: O=C1/C(=C/c2ccc(F)c(F)c2)CC(NC(=O)c2ccc(OCCN3CCN4CCCC4C3)cc2)C/C1=C\c1ccc(F)c(F)c1 (stereo not drawn) [JCS135, N-(3,5-Bis((E)-3,4-difluorobenzylidene)-4-oxocyclohexyl)-4-(2-(hexahydropyrrolo[1,2-a]pyrazin-2(1H)-yl)ethoxy)benzamide]

PARP1-trapping potency relative to JC099 (PARP1 in the chromatin-bound fraction): higher potency in PARP1-trapping
Compound: CC(=O)c1cc(C(=O)NC2C/C(=C\c3ccc(F)c(F)c3)C(=O)/C(=C/c3ccc(F)c(F)c3)C2)ccc1OCCN1CCCCC1 (stereo not drawn) [JCS103, 3-Acetyl-N-(3,5-bis((E)-3,4-difluorobenzylidene)-4-oxocyclohexyl)-4-(2-(piperidin-1-yl)ethoxy)-benzamide]

PARP1-trapping potency relative to JC099 (PARP1 in the chromatin-bound fraction): higher potency in PARP1-trapping
Compound: CCN(CC)CCOc1ccc(C(=O)NC2C/C(=C\c3ccc(F)c(F)c3)C(=O)/C(=C/c3ccc(F)c(F)c3)C2)nc1 (stereo not drawn) [JCS131, N-(3,5-Bis((E)-3,4-difluorobenzylidene)-4-oxocyclohexyl)-5-(2-(diethylamino)ethoxy)picolinamide]

PARP1-trapping potency relative to JC099 (PARP1 in the chromatin-bound fraction): their potencies were less than JC099
Compound: 3-amino-N-(3,5-bis((E)-3,4-difluorobenzylidene)-4-oxocyclohexyl)-5-(4-(isopropylsulfonyl)phenyl)pyrazine-2-carboxamide [JCS089]

PARP1-trapping potency relative to JC099 (PARP1 in the chromatin-bound fraction): higher potency in PARP1-trapping
Compound: Cc1nn(C)c2ncc(C(=O)NC3C/C(=C\c4ccc(F)c(F)c4)C(=O)/C(=C/c4ccc(F)c(F)c4)C3)c(Cl)c12 (stereo not drawn) [JCS085]

PARP1 trapped on DNA lesions (0.3 μM): trapped
PARP1-trapping potency relative to JC099 (PARP1 in the chromatin-bound fraction): higher potency in PARP1-trapping
Compound: O=C1/C(=C/c2ccc(F)c(F)c2)CC(NC(=O)c2ccc(NC(=O)N3CCCC3)cc2)C/C1=C\c1ccc(F)c(F)c1 (stereo not drawn) [JCS054, N-(4-((3,5-bis((E)-3,4-difluorobenzylidene)-4-oxocyclohexyl)carbamoyl)phenyl)pyrrolidine-1-carboxamide]

PARP1-trapping potency relative to JC099 (PARP1 in the chromatin-bound fraction): higher potency in PARP1-trapping
Compound: O=C1/C(=C/c2ccc(F)c(F)c2)CC(NC(=O)c2ccc(OCCN3CCCCC3)c(OCc3ccccc3)c2)C/C1=C\c1ccc(F)c(F)c1 (stereo not drawn) [JCS102, 3-(Benzyloxy)-N-(3,5-bis((E)-3,4-difluorobenzylidene)-4-oxocyclohexyl)-4-(2-(piperidin-1-yl)eth-oxy)benzamide]

PARP1 trapped on DNA lesions (0.3 μM): trapped
Compound: O=C1/C(=C/c2ccc(F)c(F)c2)CC(NC(=O)c2ccc(NCCN3CCOCC3)cc2)C/C1=C\c1ccc(F)c(F)c1 (stereo not drawn) [JCS042, N-(3,5-Bis((E)-3,4-difluorobenzylidene)-4-oxocyclohexyl)-4-((2-morpholinoethyl)amino)benzamide]

PARP1 trapped on DNA lesions (0.3 μM): trapped
Compound: O=C(CN1CCOCC1)Nc1ccc(C(=O)NC2C/C(=C\c3ccc(F)c(F)c3)C(=O)/C(=C/c3ccc(F)c(F)c3)C2)cc1 (stereo not drawn) [JCS047, N-(3,5-bis((E)-3,4-difluorobenzylidene)-4-oxocyclohexyl)-4-(2-morpholinoacetamido)benzamide]

PARP1 trapped on DNA lesions (0.3 μM): trapped
Compound: CN1CCN(CCOc2ccc(C(=O)NC3C/C(=C\c4ccc(F)c(F)c4)C(=O)/C(=C/c4ccc(F)c(F)c4)C3)cc2)CC1 (stereo not drawn) [JCS038, N-(3,5-Bis((E)-3,4-difluorobenzylidene)-4-oxocyclohexyl)-4-(2-(4-methylpiperazin-1-yl)ethoxy)benz-amide]

PARP1-trapping potency relative to JC099 (PARP1 in the chromatin-bound fraction): higher potency in PARP1-trapping
Compound: CCN(CC)CCOc1cccc(C(=O)NC2C/C(=C\c3ccc(F)c(F)c3)C(=O)/C(=C/c3ccc(F)c(F)c3)C2)c1 (stereo not drawn) [JCS099, N-(3,5-Bis((E)-3,4-difluorobenzylidene)-4-oxocyclohexyl)-3-(2-(diethylamino)ethoxy)benzamide]

PARP1 trapped on DNA lesions (0.5 μM): trapped
Compound: C=CCN(CC=C)CCOc1ccc(C(=O)NC2C/C(=C\c3ccc(F)c(F)c3)C(=O)/C(=C/c3ccc(F)c(F)c3)C2)cc1 (stereo not drawn) [JCS037, N-(3,5-Bis((E)-3,4-difluorobenzylidene)-4-oxocyclohexyl)-4-(2-(diallylamino)ethoxy)benzamide]

PARP1 trapped on DNA lesions (0.3 μM): trapped
Compound: O=C1/C(=C/c2ccc(F)c(F)c2)CC(NC(=O)c2ccc(NCCCN3CCCC3)cc2)C/C1=C\c1ccc(F)c(F)c1 (stereo not drawn) [JCS044, N-(3,5-Bis((E)-3,4-difluorobenzylidene)-4-oxocyclohexyl)-4-((3-(pyrrolidin-1-yl)propyl)amino)benz-amide]

PARP1-trapping potency relative to JC099 (PARP1 in the chromatin-bound fraction): their potencies were less than JC099
Compound: O=C1/C(=C/c2ccc(F)c(F)c2)CC(NC(=O)c2ccc(OCCN3CC4OCCOC4C3)cc2)C/C1=C\c1ccc(F)c(F)c1 (stereo not drawn) [JCS137, N-(3,5-Bis((E)-3,4-difluorobenzylidene)-4-oxocyclohexyl)-4-(2-(hexahydro-6H-[1,4]dioxino[2,3-c]pyrrol-6-yl)ethoxy)benzamide]

PARP1-trapping potency relative to JC099 (PARP1 in the chromatin-bound fraction): higher potency in PARP1-trapping
Compound: CCCN(CCC)CCNc1ccc(C(=O)NC2C/C(=C\c3ccc(F)c(F)c3)C(=O)/C(=C/c3ccc(F)c(F)c3)C2)cc1 (stereo not drawn) [JCS065, N-(3,5-Bis((E)-3,4-difluorobenzylidene)-4-oxocyclohexyl)-4-((2-(dipropylamino)ethyl)amino)benz-amide]
